Test results reported in ChEMBL document CHEMBL5500363, “Discovery of novel ocotillol derivatives modulating glucocorticoid receptor/NF-κB signaling for the treatment of sepsis” (Eur J Med Chem, 2024).

Columns and labels:
[1] = Cytotoxicity against mouse RAW264.7 cells assessed as cell viability at 40 uM incubated for 24 hrs by MTT assay relative to control; assay type: toxicity, cell-based; conditions: read-out: Activity
RAW264.7 [2] = assay: Inhibition of LPS-induced NO production in mouse RAW264.7 cells at 5 uM pretreated for 2 hrs followed by LPS stimulation for 24 hrs by Griess assay relative to control; assay type: functional; conditions: time 26 hrs
RAW264.7 [3] = assay: Inhibition of LPS-induced NO production in mouse RAW264.7 cells at 10 uM pretreated for 2 hrs followed by LPS stimulation for 24 hrs by Griess assay relative to control; assay type: functional; conditions: time 26 hrs
RAW264.7 [4] = assay: Inhibition of LPS-induced NO production in mouse RAW264.7 cells at 20 uM pretreated for 2 hrs followed by LPS stimulation for 24 hrs by Griess assay relative to control; assay type: functional; conditions: time 26 hrs
RAW264.7 [5] = assay: Inhibition of LPS-induced NO production in mouse RAW264.7 cells pretreated for 2 hrs followed by LPS stimulation for 24 hrs by Griess assay; assay type: functional, cell-based

Row | SMILES | viability at 24 h, 40 µM [1] | inhibition at 5 µM (RAW264.7 [2]) | inhibition at 10 µM (RAW264.7 [3]) | inhibition at 20 µM (RAW264.7 [4]) | IC50 (RAW264.7 [5])
1 | CC(C)(O)[C@@H]1CC[C@@](C)(C2CC[C@]3(C)[C@@H]2[C@H](O)C[C@@H]2[C@@]4(C)CC[C@H](OC(=O)CCC(=O)Nc5nncs5)C(C)(C)[C@@H]4CC[C@]23C)O1 (stereo partly drawn) | > 90% | 7.78% | 21.3% | 58.6% | 17.9 µM
2 | CC(C)(C)OC(=O)CCCC(=O)Nc1nc2c(s1)C[C@]1(C)[C@H]3C[C@@H](O)[C@@H]4C([C@]5(C)CC[C@H](C(C)(C)O)O5)CC[C@@]4(C)[C@]3(C)CC[C@H]1C2(C)C (stereo partly drawn) | > 90% | 14.2% | 13.3% | 18.1% | 52 µM
3 | CC(C)(C)OC(=O)NCCCCCCCC(=O)Nc1nc2c(s1)C[C@]1(C)[C@H]3C[C@@H](O)[C@@H]4C([C@]5(C)CC[C@@H](C(C)(C)O)O5)CC[C@@]4(C)[C@]3(C)CC[C@H]1C2(C)C (stereo partly drawn) | > 90% | 19.9% | 29.9% | 39.4% | 33.1 µM
4 | CC(C)(C)OC(=O)CC(=O)Nc1nc2c(s1)C[C@]1(C)[C@H]3C[C@@H](O)[C@@H]4C([C@]5(C)CC[C@@H](C(C)(C)O)O5)CC[C@@]4(C)[C@]3(C)CC[C@H]1C2(C)C (stereo partly drawn) | > 90% | 24.5% | 40.7% | 67.2% | 9.17 µM
5 | CC(C)(O)[C@H]1CC[C@@](C)(C2CC[C@]3(C)[C@@H]2[C@H](O)C[C@@H]2[C@@]4(C)Cc5sc(N)nc5C(C)(C)[C@@H]4CC[C@]23C)O1 (stereo partly drawn) | > 90% | 19% | 23.9% | 37.7% | 18.9 µM
6 | CC(C)(C)OC(=O)CCC(=O)Nc1nc2c(s1)C[C@]1(C)[C@H]3C[C@@H](O)[C@@H]4C([C@]5(C)CC[C@H](C(C)(C)O)O5)CC[C@@]4(C)[C@]3(C)CC[C@H]1C2(C)C (stereo partly drawn) | > 90% | 11.1% | 22.5% | 39.1% | 16.5 µM
7 | CC(C)(C)OC(=O)NCCCCCCCCCCC(=O)Nc1nc2c(s1)C[C@]1(C)[C@H]3C[C@@H](O)[C@@H]4C([C@]5(C)CC[C@@H](C(C)(C)O)O5)CC[C@@]4(C)[C@]3(C)CC[C@H]1C2(C)C (stereo partly drawn) | > 90% | 1.99% | 6.18% | 17.1% | 50.6 µM
8 | CC(C)(O)[C@H]1CC[C@@](C)(C2CC[C@]3(C)[C@@H]2[C@H](O)C[C@@H]2[C@@]4(C)CC[C@H](OC(=O)CCC(=O)Nc5nnc(Cl)s5)C(C)(C)[C@@H]4CC[C@]23C)O1 (stereo partly drawn) | > 90% | 28.6% | 47.3% | 57.9% | 11.4 µM
9 | CC(C)(O)[C@@H]1CC[C@@](C)(C2CC[C@]3(C)[C@@H]2[C@H](O)C[C@@H]2[C@@]4(C)Cc5sc(N)nc5C(C)(C)[C@@H]4CC[C@]23C)O1 (stereo partly drawn) | > 90% | 11.4% | 23.5% | 36.6% | 26.1 µM
10 | CC(C)(O)[C@H]1CC[C@@](C)(C2CC[C@]3(C)[C@@H]2[C@H](O)C[C@@H]2[C@@]4(C)CC[C@H](OC(=O)CCC(=O)Nc5nncs5)C(C)(C)[C@@H]4CC[C@]23C)O1 (stereo partly drawn) | > 90% | 10.8% | 18.5% | 35.7% | 40.3 µM
11 | CC(C)(O)[C@@H]1CC[C@@](C)(C2CC[C@]3(C)[C@@H]2[C@H](O)C[C@@H]2[C@@]4(C)CC[C@H](O)C(C)(C)[C@@H]4CC[C@]23C)O1 (stereo partly drawn) | – | 5.58% | 8.85% | 22.3% | 30.4 µM
12 | CC(C)(O)[C@H]1CC[C@@](C)(C2CC[C@]3(C)[C@@H]2[C@H](O)C[C@@H]2[C@@]4(C)CC[C@H](O)C(C)(C)[C@@H]4CC[C@]23C)O1 (stereo partly drawn) | – | 13% | 19.7% | 30.3% | 20.8 µM
